Measurements: patent US20220362348A1, “LACTOFERRIN, DERIVED PEPTIDE THEREOF AND METHOD THEREOF FOR INHIBITING AND/OR ALLEVIATING LIPID SYNTHESIS” (RENORIGIN INNOVATION INSTITUTE CO., LTD., priority 2021, published 2022)

Tested on: Human sebocytes
Experiment: Neutral fat detection (Nile red staining, fluorescence intensity) in linoleic acid-induced sebocytes
Assay type: cell-based
Details: for concentration dependence of inhibition of LA-induced lipid content: FIGS. 1-4, lactoferrin 100-400 μg/mL, peptides 25-100 μg/mL
Procedure: Human sebocytes (Cat. No. 36079-01, Celprogen, Torrance, Calif., USA) were cultured in Dulbecco's Modified Eagle Medium (DMEM): Nutrient Mixture F-12 (DMEM/F12) purchased from Thermo Fisher Scientific Limited (Barrington, Ill., USA), 10% fetal bovine serum (FBS) purchased from Gibco, Grand Island, N.Y., USA and penicillin/streptomycin (100 IU/50 […]), incubated at 37° C. in the 5% CO2 atmosphere.
Human sebocytes were implanted in 24- or 96-well plates. After 24 hours of culture, the cells were divided into a negative control group, a positive control group and an experimental group. […] The treated human sebocytes were cultured for two days. Human sebocytes were fixed with 4% formaldehyde at room temperature. After 60 minutes of fixation, the cells were washed with PBS and stained with Nile Red solution (1 μg/ml in PBS) at 37° C. for 15 minutes. Next, the cells were washed and observed under a fluorescent microscope. Fluorescence intensity is measured with fluorometer Spectra Max i3.

[1] = FIG. 5, 0.1 mM LA + 50 μg/mL peptide
[2] = FIG. 5, 0.1 mM LA + 50 μg/mL peptide, negative control about 1.0, positive control about 2.5
[3] = FIGS. 2-4, 0.1 mM LA + 25 to 100 μg/mL peptide
[4] = FIGS. 2-4 D, 0.1 mM LA + 25 μg/mL peptide, two days, negative control about 1.0
[5] = FIGS. 2-4 D, 0.1 mM LA + 50 μg/mL peptide, two days, negative control about 1.0
[6] = FIGS. 2-4 D, 0.1 mM LA + 100 μg/mL peptide, two days, negative control about 1.0

Compound: lactoferrin peptide 69-75: Derived peptide of lactoferrin comprising the amino acid sequence of SEQ ID NO: 02 (RDPYKLR; Lactoferrin derived peptide)
- lipid content reduced compared with positive control group (LA) [1]: 40%
- fluorescence intensity (lipid content, Nile red) [2]: about 1.5
- concentration dependence of inhibition of LA-induced lipid content: dose-dependent manner
- lipid content reduced compared with positive control group (LA) [3]: 25%
- fluorescence intensity (lipid content, Nile red) [4]: about 1.5
- fluorescence intensity (lipid content, Nile red) [5]: about 1.5
- fluorescence intensity (lipid content, Nile red) [6]: about 1.5

Compound: lactoferrin peptide 695-701: Derived peptide of lactoferrin comprising the amino acid sequence of SEQ ID NO: 04 (KKCSTSP; Lactoferrin derived peptide)
- lipid content reduced compared with positive control group (LA) [1]: 40%
- fluorescence intensity (lipid content, Nile red) [2]: about 1.5
- concentration dependence of inhibition of LA-induced lipid content: dose-dependent manner
- lipid content reduced compared with positive control group (LA) [3]: 25%
- fluorescence intensity (lipid content, Nile red) [4]: about 1.5
- fluorescence intensity (lipid content, Nile red) [5]: about 1.5
- fluorescence intensity (lipid content, Nile red) [6]: about 1.5

Compound: lactoferrin peptide 85-91: Derived peptide of lactoferrin comprising the amino acid sequence of SEQ ID NO: 03 (KESPQTH; Lactoferrin derived peptide)
- lipid content reduced compared with positive control group (LA) [1]: 40%
- fluorescence intensity (lipid content, Nile red) [2]: about 1.5
- concentration dependence of inhibition of LA-induced lipid content: dose-dependent manner
- lipid content reduced compared with positive control group (LA) [3]: 25%
- fluorescence intensity (lipid content, Nile red) [4]: about 1.5
- fluorescence intensity (lipid content, Nile red) [5]: about 1.5
- fluorescence intensity (lipid content, Nile red) [6]: about 1.5

Compound: CCCCC/C=C\C/C=C\CCCCCCCC(=O)O [LA, linoleic acid, reference compound]
- lipid content induced by LA relative to negative control group (0.1 mM linoleic acid (LA) alone): more than 2 times
